US9340819B2, “Method for detecting the presence of carbapenemase-producing bacteria in a sample” (priority 2011, dated 2016)
In brackets after ≈: the same amount, converted by molar mass.

What was measured:
[1] = test system: P. stuartii; experiment: MIC of carbapenem by Etest (Example 2); format: cell-based, Providencia stuartii; details: P. stuartii NDM-1, n=1
Method: (§1) All strains had previously been characterized for their β-lactamase content at the molecular level. Minimum inhibitory concentration of carbapenem were determined using the Etest® (AB bioMérieux, Solna, Sweden) and results were recorded according to US guidelines (CLSI), as updated in 2011.

[2] = test system: E. asburiae; experiment: MIC of carbapenem by Etest (Example 2); format: cell-based, Enterobacter asburiae; details: E. asburiae IMI-2, n=1
Method: as §1

[3] = test system: E. aerogenes; experiment: MIC of carbapenem by Etest (Example 2); format: cell-based, Enterobacter aerogenes
Method: as §1

[4] = test system: K. pneumoniae; experiment: MIC of carbapenem by Etest (Example 2); format: cell-based, Klebsiella pneumoniae
Method: as §1

[5] = test system: P. stuartii; experiment: MIC by Etest on Mueller-Hinton agar (Example 1); format: cell-based; details: Providencia stuartii, NDM-1 + OXA-1 + CMY-6
Method: (§2) Prior to performing the method of the invention, susceptibility testings were performed by determining Minimum Inhibitory Concentration (MIC) values by the Etest® (AB bioMérieux; Solna, Sweden) on Mueller-Hinton agar plates at 37° C. and results of susceptibility testing were recorded according to the Clinical and Laboratory Standards Institute (CLSI) guidelines as modified in June 2010 (18). The breakpoints for imipenem are S≦1 μg/ml (susceptibility) and R≧4 μg/ml (resistant). As for those for ertapenem, they are S≦0.25 μg/ml and R≧1 μg/ml (see Tables 1 and 2).

[6] = test system: P. mirabilis; experiment: MIC by Etest on Mueller-Hinton agar (Example 1); format: cell-based; details: Proteus mirabilis, plasmid mediated cephalosporinase ACC-1
Method: as §2

[7] = test system: E. cloacae; experiment: MIC by Etest on Mueller-Hinton agar (Example 1); format: cell-based; details: Enterobacter cloacae
Method: as §2

[8] = test system: K. pneumoniae; experiment: MIC by Etest on Mueller-Hinton agar (Example 1); format: cell-based; details: Klebsiella pneumoniae
Method: as §2

C[C@@H](O)[C@H]1C(=O)N2C(C(=O)O)=C(S[C@@H]3CN[C@H](C(=O)Nc4cccc(C(=O)O)c4)C3)[C@H](C)[C@H]12 [ERT, ertapenem]
MICs range [1]: 0.38 mg/L | MICs range [2]: >32 mg/L | MICs range ([3]; E. aerogenes KPC-2, n=1): >32 mg/L | MICs range ([3]; Plasmid mediated AmpC or chromosomal AmpC + decreased membrane permeability, E. aerogenes Overexpressed cephalosporinase, n=1): 4 mg/L | MICs range ([4]; ESBL + decreased membrane permeability, K. pneumoniae SHV-2a, n=1): 2 mg/L | MICs range ([4]; ESBL + decreased membrane permeability, K. pneumoniae SHV-28, n=1): 4 mg/L | MICs range ([4]; ESBLs, K. pneumoniae CTX-M-3, n=1): 0.12 mg/L | MICs range ([4]; ESBLs, K. pneumoniae CTX-M-14, n=1): 0.12 mg/L | MICs range ([4]; ESBLs, K. pneumoniae CTX-M-15, n=3): 0.12 mg/L | MICs range ([4]; K. pneumoniae IMP-1, n=5): 2 to 4 mg/L | MICs range ([4]; K. pneumoniae IMP-8, n=2): 0.5 to 1^ mg/L | MICs range ([4]; K. pneumoniae NDM-4, n=1): >32 mg/L | MICs range ([4]; K. pneumoniae OXA-181, n=2): 2 to 4 mg/L | MICs range ([4]; K. pneumoniae VIM-19, n=1): 16 mg/L | MICs range ([4]; Plasmid mediated AmpC or chromosomal AmpC + decreased membrane permeability, K. pneumoniae DHA-1, n=1): >32 mg/L | MICs range ([4]; Plasmid mediated AmpC or chromosomal AmpC + decreased membrane permeability, K. pneumoniae DHA-2, n=1): 0.5 mg/L | MIC [5]: > 32 µg/mL | MIC [6]: 0.19 µg/mL (≈ 0.4 µM) | MIC ([7]; E. cloacae 2185, ESBL OXA-163): 0.19 µg/mL (≈ 0.4 µM) | MIC ([7]; E. cloacae (1), KPC-2): 6 µg/mL (≈ 12.6 µM) | MIC ([7]; E. cloacae (17), ESBL CTX-M-15): 0.19 µg/mL (≈ 0.4 µM) | MIC ([7]; E. cloacae ARF (25), overexpression of chromosomal cephalosporinase AmpC): 0.5 µg/mL (≈ 1.05 µM) | MIC ([7]; E. cloacae BLA, overexpression of chromosomal cephalosporinase AmpC): 0.5 µg/mL (≈ 1.05 µM) | MIC ([7]; E. cloacae CON (26), overexpression of chromosomal cephalosporinase AmpC): 0.75 µg/mL (≈ 1.58 µM) | MIC ([7]; E. cloacae IR38, NDM-1 + CTX-M-15): > 32 µg/mL | MIC ([7]; E. cloacae TUR (6), OXA-48 + SHV-5): 1 µg/mL | MIC ([7]; E. cloacae, ESBL VEB-1): 0.19 µg/mL (≈ 0.4 µM) | MIC ([8]; CIP53153, K. pneumoniae CIP53153 (30), wild-type): 0.19 µg/mL (≈ 0.4 µM) | MIC ([8]; K. pneumoniae 1 OMA (11), NDM-1 + CTX-M-15 + OXA-1 + OXA-9): > 32 µg/mL | MIC ([8]; K. pneumoniae 2 OMA, NDM-1 + OXA-1): > 32 µg/mL | MIC ([8]; K. pneumoniae 7 AFR, NDM-1 + OXA-1 + CTX-M-15 + CMY-6 + TEM-1): > 32 µg/mL | MIC ([8]; K. pneumoniae 6299 (19), ESBL OXA-163): 0.19 µg/mL (≈ 0.4 µM) | MIC ([8]; K. pneumoniae 6759 GEN, NDM-1 + CTX-M-15 + OXA-1 + OXA-9 + OXA-10 + CMY16): 32 µg/mL | MIC ([8]; K. pneumoniae (16), ESBL CTX-M-15): 0.19 µg/mL (≈ 0.4 µM) | MIC ([8]; K. pneumoniae BEL, OXA-48): 4 µg/mL (≈ 8.41 µM) | MIC ([8]; K. pneumoniae BER (28), porin deficiency associated with ESBL, TEM): 0.75 µg/mL (≈ 1.58 µM) | MIC ([8]; K. pneumoniae BIC (4), OXA-48): 2 µg/mL (≈ 4.21 µM) | MIC ([8]; K. pneumoniae CHA (5), OXA-48 + TEM-1): 1 µg/mL | MIC ([8]; K. pneumoniae COO (27), porin deficiency associated with ESBL, CTX-M-15 + SHV-28): 0.75 µg/mL | MIC ([8]; K. pneumoniae DIN, NDM-1): 32 µg/mL (≈ 67.3 µM) | MIC ([8]; K. pneumoniae EGY, OXA-48 + CTX-M-15): 3 µg/mL | MIC ([8]; K. pneumoniae H1516-6 COL (3), KPC-2 + TEM-1 + CTXM-15): 3 µg/mL | MIC ([8]; K. pneumoniae HOL, OXA-181 + CTX-M-15): 1 µg/mL | MIC ([8]; K. pneumoniae IND, NDM-1 + OXA-1 + CTX-M-15): 8 µg/mL | MIC ([8]; K. pneumoniae MAD (15), IMP-13): 2 µg/mL (≈ 4.21 µM) | MIC ([8]; K. pneumoniae MAD, VIM-1 + CTX-M-3): > 32 µg/mL | MIC ([8]; K. pneumoniae OMA (8), OXA-181 + CTXM-15 + OXA-1): 2 µg/mL | MIC ([8]; K. pneumoniae RAM, OXA-48): 2 µg/mL (≈ 4.21 µM) | MIC ([8]; K. pneumoniae SAB, NDM-1): 8 µg/mL (≈ 16.8 µM)
